In brackets after ≈: the same amount, converted by molar mass. Where two headings read alike, the source gives them in different places.
What was measured:
[1] = Solvent screen for dissolution of crystalline Compound A; type: physicochemical
Method: A screen was conducted to determine the optimum solvent for use purifying Compound A and for dissolution of crystalline Compound A prior to spray drying.

[2] = Rat pharmacokinetic studies with solutions and spray-dried dispersions; settings: rats; solutions containing solubilizers and precipitation inhibitors
[3] = Membrane flux experiment (donor/receiver compartments, SIF bile salts)
Method: A membrane flux experiment was conducted in which a fixed amount of compound was introduced into the donor compartment at various concentrations of the SIF bile salts, and appearance of drug was monitored on the receiver side.

[4] = Solubility of Compound A in solvents at 24° C. ± 3° C., 24 h; type: physicochemical; settings: organic solvent or mixture, thermodynamic from solid
Method: (§1) This batch was prepared for use in the 28-day good laboratory practice (GLP) toxicology studies using the same synthetic scheme and processing employed in preparation of active pharmaceutical ingredient (API) to be used in the clinical drug product.

[5] = Glass transition and recrystallization temperature of amorphous solids; type: physicochemical
Method: Thus, while crystals of Compound A are quite stable, there is a significant barrier to transforming to a crystalline state from an amorphous form. Indeed, a ramped temperature increase of a partially-crystalline sample does eventually lead to a recrystallization event, but not until a temperature of 200-220° C. is achieved. […] As discussed below, this robust resistance to crystallization is preserved even in the presence of water.
The amorphous form of pure Compound A is robust with a high Tg and even higher recrystallization temperature. The glass transition temperature does decrease under the plasticizing conditions of high humidity. However, the value is still well above the commonly applied 40-50° C. difference between Tg and any temperature the clinical presentation will encounter.

MDCK cells = assay: In vitro permeability in MDCK cells; type: in vitro ADME
[6] = Oral bioavailability and hepatic clearance with colloid-forming, precipitation-resistant solutions; type: in vivo
pKa of Compound A = type: physicochemical
Method: as §1

SMILES: N#Cc1ccc(O[C@H]2CC[C@H](NC(=O)c3ccc(N4CCC(CN5CCN(c6cc7c(cc6F)C(=O)N(C6CCC(=O)NC6=O)C7=O)CC5)CC4)nn3)CC2)cc1Cl (stereo partly shown) [Compound A, N-[(1r,4r)-4-(3-chloro-4-cyanophenoxy)cyclohexyl]-6-[4-({4-[2-(2,6-dioxopiperidin-3-yl)-6-fluoro-1,3-dioxo-2,3-dihydro-1H-isoindol-5-yl]piperazin-1-yl}methyl)piperidin-1-yl]pyridazine-3-carboxamide]
- Dissolution ([1]; DCM:Acetone, 53:47% wt., Solids 0.82 wt %, RT): Not dissolved
- Dissolution ([1]; DCM:Ethanol, 92:8% wt., Solids 2.26 wt %, RT): Dissolved
- Dissolution ([1]; DCM:Methanol, 70:30% wt., Solids 3.2 wt %, RT): Turbid solution
- Dissolution ([1]; DCM:Methanol, 80:20% wt., Solids 3.4 wt %, RT): Dissolved
- Dissolution ([1]; DCM:Methanol, 90:10% wt., Solids 5 wt %, RT): Dissolved
- Dissolution ([1]; DCM:Methanol, 90:10% wt., Solids 6.6 wt %, Temperature 30): Dissolved
- Dissolution ([1]; DCM:Methanol, 90:10% wt., Solids 8.1 wt %, Temperature 35): Dissolved
- Dissolution ([1]; DCM:Methanol, 95:5 wt. %., Solids 4.2 wt %, RT): Dissolved
- Dissolution ([1]; DCM, Solids 0.6 wt %, RT): Not dissolved
- Dissolution ([1]; Methanol, Solids 2.8 wt %, RT): Not dissolved
- Dissolution ([1]; THF, Solids 0.7 wt %, RT): Not dissolved
- exposure versus dose [2]: Dose-linear exposure escalation
- Flux (μg-min^−1-cm^−2) ([3]; SIF 0 mg/mL): 0.02 μg-min^−1-cm^−2
- Flux (μg-min^−1-cm^−2) ([3]; SIF 5 mg/mL): 0.09 μg-min^−1-cm^−2
- Flux (μg-min^−1-cm^−2) ([3]; SIF 10 mg/mL): 0.14 μg-min^−1-cm^−2
- Flux (μg-min^−1-cm^−2) ([3]; SIF 20 mg/mL): 0.20 μg-min^−1-cm^−2
- solubility at 24 h ([4]; Acetonitrile, read-out: Solubility, Conc. (mg/mL), 24 h): 0.79 mg/mL (≈ 973 µM)
- solubility at 24 h ([4]; Dichloromethane, read-out: Solubility, Conc. (mg/mL), 24 h): 25.1 mg/mL (≈ 30900 µM)
- solubility at 24 h ([4]; Dichloromethane/methanol, read-out: Solubility, Conc. (mg/mL), 24 h): 100 mg/mL (≈ 123000 µM)
- solubility at 24 h ([4]; Ethanol, read-out: Solubility, Conc. (mg/mL), 24 h): 0.08 mg/mL (≈ 98.5 µM)
- solubility at 24 h ([4]; Ethyl acetate, read-out: Solubility, Conc. (mg/mL), 24 h): 0.2 mg/mL (≈ 246 µM)
- solubility at 24 h ([4]; Methanol, read-out: Solubility, Conc. (mg/mL), 24 h): 0.29 mg/mL (≈ 357 µM)
- solubility at 24 h ([4]; Polyethylene glycol-300, read-out: Solubility, Conc. (mg/mL), 24 h): 2.8 mg/mL (≈ 3450 µM)
- solubility at 24 h ([4]; Propylene glycol, read-out: Solubility, Conc. (mg/mL), 24 h): 0.75 mg/mL (≈ 923 µM)
- glass transition temperature (Tg) [5]: 146 °C
- temperature of recrystallization event ([5]; ramped temperature increase of a partially-crystalline sample): 200-220 °C
- in vitro permeability in MDCK cells (MDCK cells): low
- oral bioavailability ([6]; colloid-forming, precipitation-resistant solutions administered): modest
- hepatic clearance ([6]; in vivo): low
- pKa1 (pKa of Compound A): pKa1 = 6.8
- pKa2 (pKa of Compound A): pKa2 = 2.7

Source: patent US12043612B2, “Methods of manufacturing a bifunctional compound, ultrapure forms of the bifunctional compound, and dosage forms comprising the same” (Arvinas Operations, Inc., priority 2020, dated 2024)
